This passage reports pest or weed control results from US20230278972A1, “SUBSTITUTED HALOALKYL SULFONANILIDE HERBICIDES” (FMC Corporation, priority 2020, published 2023).

Like-named read-outs stand apart in the source and are kept apart here.

Test [1] relates to ragweed (common ragweed, Ambrosia artemisiifolia). Briefly: Test A postemergence, ragweed. It counts as in vivo. Conditions: Ambrosia artemisiifolia, post-emergence, 240 h, Postemergence, 0 to 100 scale (0 no effect, 100 complete control); for pest or weed control at 125 g/ha: 125 g ai/ha; for pest or weed control at 500 g/ha: 500 g ai/ha. The gist of the method:
(§1)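 After sowing into a sand-amended loam, pots for the preemergence test were treated by spraying directly onto soil. In parallel, seedlings at the one- to two-leaf stage and 2 to 10 cm tall were treated postemergence with the identical surfactant-containing formulation.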

Another test has as its system kochia (Bassia scoparia). The test can be described thus: Test A preemergence, kochia. It counts as in vivo. Conditions: Bassia scoparia, pre-emergence, 240 h, Preemergence; for pest or weed control at 125 g/ha: 125 g ai/ha, visual injury, approx. 10 days; for pest or weed control at 500 g/ha: 500 g ai/ha. In a few lines:
as §1

Test [2] relates to blackgrass (Alopecurus myosuroides). The test can be described thus: Test A postemergence, blackgrass. It counts as in vivo. Conditions: Alopecurus myosuroides, post-emergence, 240 h, Postemergence, 0 to 100 scale (0 no effect, 100 complete control); for pest or weed control at 125 g/ha: 125 g ai/ha; for pest or weed control at 500 g/ha: 500 g ai/ha. The gist of the method:
as §1

The test system of test [3] is Ryegrass, Italian (Italian ryegrass, Lolium multiflorum). Briefly: Test A preemergence, Ryegrass, Italian. Conditions: Lolium multiflorum, pre-emergence, 240 h, Preemergence; for pest or weed control at 125 g/ha: 125 g ai/ha, visual injury, approx. 10 days; for pest or weed control at 500 g/ha: 500 g ai/ha. It counts as in vivo. In a few lines: as §1
For test [4], the system named is barnyardgrass (Echinochloa crus-galli). The test can be described thus: Test B flooded paddy test, barnyardgrass. Conditions: 336 h, read-out: Plant response rating, Barnyardgrass.
Where [5] appears, read: read-out: Plant response rating, Ragweed.
Where [6] appears, read: visual injury vs untreated controls after approx. 10 days, read-out: Ragweed plant response rating.
Where [7] appears, read: 0 to 100 scale (0 no effect, 100 complete control), read-out: Plant response rating, Kochia.
The mark [8] stands for this setting: read-out: Plant response rating, Blackgrass.
[9] abbreviates: visual injury vs untreated controls after approx. 10 days, read-out: Blackgrass plant response rating.
The mark [10] stands for this setting: 0 to 100 scale (0 no effect, 100 complete control), read-out: Plant response rating, Ryegrass, Italian.
[11] abbreviates: visual injury on 0 to 100 scale (0 no effect, 100 complete control), approximately 10 days, read-out: Kochia plant response rating.
The mark [12] stands for this setting: visual injury on 0 to 100 scale (0 no effect, 100 complete control), approximately 10 days, read-out: Ryegrass, Italian plant response rating.

As for `Cc1cc(C)c(C2=NOC3(CCCCC3)C2)cc1NS(=O)(=O)C(F)(F)F` [Compound 197, N-[2,4-Dimethyl-5-(1-oxa-2-azaspiro[4.5]dec-2-en-3-yl)phenyl]-1,1,1-trifluoromethanesulfonamide], the pest or weed control at 125 g/ha is 80% in test [1] (setting [5]), 90% in the test on kochia (Bassia scoparia) (setting [7]), 40% in test [2] (setting [8]) and 100% in test [3] (setting [10]). Further, the pest or weed control at 500 g/ha turned out to be 80% in test [1] (setting [6]), 90% with kochia (Bassia scoparia) (setting [7]), 60% in test [2] (setting [9]) and 100% in test [3] (setting [10]). Further, the pest or weed control at 250 g/ha in test [4] was found to be 95%.
For the molecule `Cc1cc(C)c(C2=NOC3(CCCC3)C2)cc1NS(=O)(=O)C(F)(F)F` [Compound 207, N-[2,4-Dimethyl-5-(1-oxa-2-azaspiro[4.4]non-2-en-3-yl)phenyl]-1,1,1-trifluoromethanesulfonamide], the pest or weed control at 125 g/ha is 20% in test [1] (setting [5]), 90% in the test with kochia (Bassia scoparia) (setting [7]), 20% in test [2] (setting [8]) and 90% in test [3] (setting [10]). In addition, the pest or weed control at 500 g/ha amounted to 70% in test [1] (setting [6]), 90% with kochia (Bassia scoparia) (setting [7]), 60% in test [2] (setting [9]) and 100% in test [3] (setting [10]). In test [4], the pest or weed control at 250 g/ha was 75%.
Consider `Cc1cc(Cl)c(NS(=O)(=O)C(F)(F)F)cc1C(=O)N1CCC(F)(F)CC1` [Compound 229, N-[2-Chloro-5-[(4,4-difluoro-1-piperidinyl)carbonyl]-4-methylphenyl]-1,1,1-trifluoromethanesulfonamide], for which the pest or weed control at 125 g/ha is 90% in test [1] (setting [5]), 80% in the test on kochia (Bassia scoparia) (setting [7]), 20% in test [2] (setting [8]) and 60% in test [3] (setting [10]). For the same molecule, the pest or weed control at 500 g/ha in test [1] (setting [6]) was found to be 90%; in the test with kochia (Bassia scoparia) (setting [11]), 100%; in test [2] (setting [9]) it was 70%; in test [3] (setting [12]) it was 90%. Also, in test [4], the pest or weed control at 250 g/ha was found to be 10%.
Take `Cc1cc(C)c(C(=O)N2CCC(F)(F)CC2)cc1NS(=O)(=O)C(F)(F)F` [Compound 241, N-[5-[(4,4-Difluoro-1-piperidinyl)carbonyl]-2,4-dimethylphenyl]-1,1,1-trifluoromethanesulfonamide]: the pest or weed control at 125 g/ha in test [1] (setting [5]) turned out to be 40%; in the test with kochia (Bassia scoparia) (setting [7]), 70%; in test [2] (setting [8]), 0%; in test [3] (setting [10]), 70%. The pest or weed control at 500 g/ha in test [1] (visual injury approx. 10 days, read-out: Plant response rating, Ragweed) stood at 80%; in the test with kochia (Bassia scoparia) (setting [11]), 100%; in test [2] (visual injury approx. 10 days, read-out: Plant response rating, Blackgrass), 80%; in test [3] (setting [12]), 100%. Also, the pest or weed control at 250 g/ha in test [4] came out at 25%.
